US20100063085A1, “METHOD OF TREATING LEARNING IMPAIRMENT IN DOWN'S SYNDROME SUBJECTS” (University Court of The University of Dundee, priority 2008, published 2010)
Like-named read-outs stand apart in the source and are kept apart here.

How the values were obtained:
Format in all cases: biochemical
SAPK2a/p38 = SAPK2a/p38 (Homo sapiens, UniProt Q16539); assay: SAPK2a/p38 33P kinase assay; settings: read-out: SAPK2a/p38 activity as percentage of control without inhibitor
Procedure: (§1) All assays (25.5 μl) were carried out at room temperature (21° C.) and were linear with respect to time and enzyme concentrations under the conditions used. Assays were performed for 30 minutes except assays for LCK and PKB which were performed for 15 minutes using Multidrop Micro reagent dispensers (Thermo Electron Corporation, Waltham, Mass. 02454, USA) in a 96-well format. The concentration of […] [γ-^33P] ATP (800 cpm/pmol) in the assays was one of three concentrations (5, 20 or 50 μM) in order to be at or below Km for ATP for the enzyme. Assays were initiated with MgATP and stopped by addition of 5 μl of 0.5M orthophosphoric acid. Assays were then harvested onto P81 filterplates using a unifilter harvester (PerkinElmer, Boston, Mass. 02118, USA), with a wash buffer of 50 mM orthophosphoric acid. Filterplates were then air dried overnight. 10 μl of Microscint O was added per well prior to counting for radioactivity.
(§2) MKK1, JNK/SAPK1c, SAPK2a/p38, SAPK2b/p38β2, SAPK3/p38γ, SAPK4/p38δ, MAPK2/ERK2, MAPKAP-K1β, MAPKAP-K2, MSK1, PRAK, PKA, PKCα, PDK1, SGK, p70S6K, GSK3β, ROCK-II, PRK2, AMPK, CHK1, CHK2, CK2, PHK, LCK, were assayed according to Davies et al., (Davies, S. P., Reddy, H., Caivano, M. and Cohen, P. Biochem. J. 351, 95-105, 2000.
(§3) CSK and CDK2/cyclinA, were assayed according to Bain et al. (Bain J, McLauchlan H, Elliott M, Cohen P. Biochem J. 371, 199-204, 2003., except that ATP concentrations were either 5, 20 or 50 micromolar so that they were at or below the Km for ATP. The ATP concentrations used were as follows, 5 μM for assays of MKK1, SAPK3, SAPK4, GSK3β, PRK2 CK2 20 μm for assays of JNK, SAPK2β, MAPKAP-K2, MSK1, PRAK, PKA, […], PDK1, SGK, p70S6K, ROCK-II, CHK1, CHK2, CSK, CDK2, and 50 μM for assays of SAPK2a, MAPK2/ERK2, AMPK, LCK, PHK and MAPKAP-K1β.

Lck = Lck (Homo sapiens, UniProt P06239); assay: Lck 33P kinase assay; settings: read-out: Lck activity as percentage of control without inhibitor; for remaining activity at 1 µM: inhibitor 1 μM
Procedure: as §1, with “Assays” for “All assays (25.5 μl) were carried out at room temperature (21° C.) and were linear with respect to time and enzyme concentrations under the conditions used. Assays”
as §2, §3

SAPK2b/p38β2 = SAPK2b/p38β2 (Homo sapiens, UniProt Q15759); assay: SAPK2b/p38β2 33P kinase assay; settings: read-out: SAPK2b/p38β2 activity as percentage of control without inhibitor; for remaining activity at 1 µM: inhibitor 1 μM
Procedure: as §1, with “Assays” for “All assays (25.5 μl) were carried out at room temperature (21° C.) and were linear with respect to time and enzyme concentrations under the conditions used. Assays”
as §2, §3

MAPKAP-K1b = MAPKAP-K1b (Homo sapiens, UniProt P51812); assay: MAPKAP-K1b 33P kinase assay; settings: read-out: MAPKAP-K1b activity as percentage of control without inhibitor
Procedure: as §1, §2, §3

DYRK1a = target: T1, DYRK1a (Homo sapiens, UniProt Q13627); assay: biochemical; settings: for remaining activity at 1 µM / remaining activity at 10 µM: read-out: DYRK1a activity as percentage of control without inhibitor
T1 construct: made in house
Procedure: DYRK1A (5-20 mU of diluted in 50 mM Tris pH 7.5, 0.1 mM EGTA) was assayed against Woodtide ([…]) in a final volume of 25.5 μl containing 50 mM Tris pH 7.5, 0.1 mM EGTA, 350 uM substrate peptide, 10 mM magnesium acetate and 0.5 μl inhibitor and incubated at room temperature for 5 mins, followed by the addition of 0.05 mM [33P-gamma-ATP] (50-1000 cpm/pmole) and incubated for 30 mins at room temperature. Assays were stopped by addition of 5 μl of 0.5 M (3%) orthophosphoric acid then harvested onto P81 Unifilter plates with a wash buffer of 50 mM orthophosphoric acid. Filterplates were then air dried overnight. 10 μl of Microscint O was added per well prior to counting for radioactivity.

SGK = target: T2, SGK (Homo sapiens, UniProt O00141); assay: SGK 33P kinase assay; settings: read-out: SGK activity as percentage of control without inhibitor
T2 sequence (O00141 1-431): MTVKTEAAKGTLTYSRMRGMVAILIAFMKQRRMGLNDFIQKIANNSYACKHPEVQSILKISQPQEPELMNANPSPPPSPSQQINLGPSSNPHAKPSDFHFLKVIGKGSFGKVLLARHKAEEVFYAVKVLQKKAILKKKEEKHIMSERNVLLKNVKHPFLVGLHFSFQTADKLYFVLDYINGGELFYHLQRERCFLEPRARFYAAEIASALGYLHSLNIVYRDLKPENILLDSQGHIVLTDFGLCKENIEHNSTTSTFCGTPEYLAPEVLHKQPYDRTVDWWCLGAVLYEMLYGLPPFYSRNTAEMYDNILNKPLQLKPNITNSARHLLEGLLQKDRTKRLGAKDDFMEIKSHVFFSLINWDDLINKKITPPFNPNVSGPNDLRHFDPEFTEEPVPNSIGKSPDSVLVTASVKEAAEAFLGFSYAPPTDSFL
Procedure: as §1, §2, §3

SAPK2b/p38β2, sequence (Q15759 whole entry): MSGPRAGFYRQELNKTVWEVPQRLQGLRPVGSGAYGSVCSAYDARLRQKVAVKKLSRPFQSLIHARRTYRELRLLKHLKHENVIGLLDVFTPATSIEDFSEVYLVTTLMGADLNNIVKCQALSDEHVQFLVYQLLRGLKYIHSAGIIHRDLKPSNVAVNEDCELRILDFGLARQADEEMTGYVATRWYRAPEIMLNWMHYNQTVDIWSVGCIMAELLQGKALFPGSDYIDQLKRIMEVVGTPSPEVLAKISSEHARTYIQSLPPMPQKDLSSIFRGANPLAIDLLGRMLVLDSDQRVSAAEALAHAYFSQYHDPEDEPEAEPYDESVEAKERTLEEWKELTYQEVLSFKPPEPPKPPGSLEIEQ
MAPKAP-K1b, sequence (P51812 whole entry, species assumed): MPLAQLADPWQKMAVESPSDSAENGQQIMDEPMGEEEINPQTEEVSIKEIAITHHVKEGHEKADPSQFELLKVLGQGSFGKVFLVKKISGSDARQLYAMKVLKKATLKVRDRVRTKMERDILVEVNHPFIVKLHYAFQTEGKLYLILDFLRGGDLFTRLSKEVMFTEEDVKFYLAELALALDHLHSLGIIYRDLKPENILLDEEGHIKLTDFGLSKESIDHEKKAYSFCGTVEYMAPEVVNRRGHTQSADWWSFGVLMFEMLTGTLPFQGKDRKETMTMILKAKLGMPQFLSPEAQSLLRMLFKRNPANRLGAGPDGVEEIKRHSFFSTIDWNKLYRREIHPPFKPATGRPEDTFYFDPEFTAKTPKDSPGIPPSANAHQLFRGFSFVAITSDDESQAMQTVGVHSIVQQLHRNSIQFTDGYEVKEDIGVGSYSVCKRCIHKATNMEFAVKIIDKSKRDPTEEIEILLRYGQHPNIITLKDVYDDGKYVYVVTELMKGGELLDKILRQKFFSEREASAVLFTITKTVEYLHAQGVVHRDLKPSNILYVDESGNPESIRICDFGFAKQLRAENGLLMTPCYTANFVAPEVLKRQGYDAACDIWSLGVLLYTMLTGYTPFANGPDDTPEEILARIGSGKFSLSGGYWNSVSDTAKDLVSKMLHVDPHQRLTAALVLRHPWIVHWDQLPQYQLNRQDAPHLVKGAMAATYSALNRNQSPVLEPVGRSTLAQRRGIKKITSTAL
Lck, sequence (P06239 whole entry, species assumed): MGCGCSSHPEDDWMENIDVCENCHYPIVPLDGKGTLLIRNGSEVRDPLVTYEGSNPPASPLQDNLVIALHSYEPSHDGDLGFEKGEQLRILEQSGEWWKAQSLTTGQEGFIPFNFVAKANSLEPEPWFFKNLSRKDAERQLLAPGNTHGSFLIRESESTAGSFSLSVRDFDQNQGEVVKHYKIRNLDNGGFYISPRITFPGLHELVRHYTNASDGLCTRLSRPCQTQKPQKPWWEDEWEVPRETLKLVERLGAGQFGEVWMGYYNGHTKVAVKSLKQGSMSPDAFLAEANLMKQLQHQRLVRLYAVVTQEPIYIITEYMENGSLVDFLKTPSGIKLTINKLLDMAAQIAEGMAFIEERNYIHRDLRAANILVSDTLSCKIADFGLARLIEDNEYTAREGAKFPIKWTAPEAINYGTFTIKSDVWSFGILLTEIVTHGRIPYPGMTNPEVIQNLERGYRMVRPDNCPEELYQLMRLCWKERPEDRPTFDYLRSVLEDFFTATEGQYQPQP
SAPK2a/p38, sequence (Q16539 whole entry): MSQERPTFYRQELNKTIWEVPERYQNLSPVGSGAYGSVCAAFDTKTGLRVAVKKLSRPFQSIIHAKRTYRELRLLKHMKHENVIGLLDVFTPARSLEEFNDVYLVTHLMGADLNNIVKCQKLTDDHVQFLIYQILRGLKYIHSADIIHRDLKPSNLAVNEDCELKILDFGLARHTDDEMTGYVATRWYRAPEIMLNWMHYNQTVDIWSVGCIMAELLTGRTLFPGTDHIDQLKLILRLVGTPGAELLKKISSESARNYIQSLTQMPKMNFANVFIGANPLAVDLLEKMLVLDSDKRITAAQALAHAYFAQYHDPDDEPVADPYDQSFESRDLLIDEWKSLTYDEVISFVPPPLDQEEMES

Row | SMILES | remaining activity at 1 µM (SAPK2a/p38) [%] | remaining activity at 10 µM (SAPK2a/p38) [%] | remaining activity at 1 µM (Lck) [%] | remaining activity at 10 µM (Lck; inhibitor 10 μM) [%] | remaining activity at 1 µM (SAPK2b/p38β2) [%] | remaining activity at 10 µM (SAPK2b/p38β2; inhibitor 10 μM) [%] | remaining activity at 1 µM (MAPKAP-K1b; inhibitor 1 μM) [%] | remaining activity at 10 µM (MAPKAP-K1b; inhibitor 10 μM) [%] | remaining activity at 1 µM (DYRK1a; inhibitor 1 μM) [%] | remaining activity at 10 µM (DYRK1a; inhibitor 10 μM) [%] | remaining activity at 1 µM (SGK; inhibitor 1 μM) [%] | remaining activity at 10 µM (SGK; inhibitor 10 μM) [%] | further results
1 | COc1ccc2c3c([nH]c2c1)C(C)=NCC3 [Harmaline] | 89 | 86 | 77 | 87 | 91 | 93 | 87 | 80 | 78 | 8 | 14 | 84 | 
2 | CC1=NCCc2c1[nH]c1cc(O)ccc21 [Harmalol] |  |  | 85 | 68 | 88 | 79 | 87 | 67 | 25 | 3 | 62 | 45 | remaining activity at 1 µM (SAPK2a/p38; inhibitor 1 μM): 95%; remaining activity at 10 µM (SAPK2a/p38; inhibitor 10 μM): 74%
3 | COc1ccc2c(c1)[nH]c1c(C)nccc12 [Harmine] | 95 | 81 |  |  |  |  |  |  |  |  |  |  | remaining activity at 10 µM (Lck): 91%; remaining activity at 10 µM (SAPK2b/p38β2): 87%; remaining activity at 1 µM (MAPKAP-K1b): 89%; remaining activity at 10 µM (MAPKAP-K1b): 95%; inhibition of DYRK1a, result in words (DYRK1a): very potent and specific inhibitor of DYRK1a; remaining activity at 1 µM (DYRK1a): 4%; remaining activity at 10 µM (DYRK1a): 1%; remaining activity at 1 µM (SGK): 66%; remaining activity at 10 µM (SGK): 62%
